# Read-outs that look alike come from different tables or passages of the source.
# Legend:
# Test in all cases: microbe, parasite or virus in culture
# [1] = system: M. tuberculosis H37Rv poly-g-GFP; format: cell-based; settings: Mycobacterium tuberculosis, 336 h, read-out: MIC Mtb H37Rv-poly-g-GFP, turbidity read-out
# C. difficile 630 = format: cell-based, Clostridioides difficile
# [2] = system: M. tuberculosis H37Rv poly-g-GFP; format: cell-based; settings: Mycobacterium tuberculosis, H37RV, 240 h, read-out: IC90 Mtb H37Rv-poly-g-GFP, fluorescence read-out
# [3] = Clostridioides difficile, C. difficile 630, anaerobic, overnight, growth suppressed to OD600 < 0.15, read-out: MIC C. difficile
# [4] = concentration for 90 % inhibition of fluorescence as proxy for growth inhibition, 10 days, 37 °C
Compound,MIC (C. difficile 630; [3]) [µg/mL],IC90 [2] [µg/mL],"IC90 [2, 4] [µg/mL]",also measured
"CO[C@H]1/C=C/O[C@@]2(C)Oc3c(C)c(O)c4c(O)c(c(/C=N/N5CCN(C)CC5)c(O)c4c3C2=O)NC(=O)/C(C)=C\C=C\[C@H](C)[C@H](O)[C@@H](C)[C@@H](O)[C@@H](C)[C@H](OC(C)=O)[C@@H]1C [Rif, Rifampicin, reference compound]",,,,MIC [1]: < 0.12 µg/mL
CC[C@H]1/C=C(\C)[C@@H](O)C/C=C/C=C(\CN2CCN(c3ccccc3)CC2)C(=O)O[C@H]([C@@H](C)O)C/C=C(C)/C=C(\C)[C@@H]1O[C@@H]1OC(C)(C)[C@@H](OC(=O)C(C)C)[C@H](O)[C@@H]1O [compound 2],> 32,16,,
CC[C@H]1/C=C(\C)[C@@H](O)C/C=C/C=C(\CN2CCN(c3ccncc3)CC2)C(=O)O[C@H]([C@@H](C)O)C/C=C(C)/C=C(\C)[C@@H]1O[C@@H]1OC(C)(C)[C@@H](OC(=O)C(C)C)[C@H](O)[C@@H]1O [compound 3],,16,,
CC[C@H]1/C=C(\C)[C@@H](O)C/C=C/C=C(\CN2CCN(CCOc3ncccn3)CC2)C(=O)O[C@H]([C@@H](C)O)C/C=C(C)/C=C(\C)[C@@H]1O[C@@H]1OC(C)(C)[C@@H](OC(=O)C(C)C)[C@H](O)[C@@H]1O [compound 4],,> 64,,
CC[C@H]1/C=C(\C)[C@@H](O)C/C=C/C=C(\CN2CCN(Cc3ccc(F)cc3)CC2)C(=O)O[C@H]([C@@H](C)O)C/C=C(C)/C=C(\C)[C@@H]1O[C@@H]1OC(C)(C)[C@@H](OC(=O)C(C)C)[C@H](O)[C@@H]1O [compound 6],16,16,,
CC[C@H]1/C=C(\C)[C@@H](O)C/C=C/C=C(\CN(C)Cc2nnc(-c3ccccc3)o2)C(=O)O[C@H]([C@@H](C)O)C/C=C(C)/C=C(\C)[C@@H]1O[C@@H]1OC(C)(C)[C@@H](OC(=O)C(C)C)[C@H](O)[C@@H]1O [compound 7],16,8,,MIC [1]: 8 µg/mL
CC[C@H]1/C=C(\C)[C@@H](O)C/C=C/C=C(\CNc2nc3ccccc3s2)C(=O)O[C@H]([C@@H](C)O)C/C=C(C)/C=C(\C)[C@@H]1O[C@@H]1OC(C)(C)[C@@H](OC(=O)C(C)C)[C@H](O)[C@@H]1O [compound 9],2,8,,MIC [1]: 4 to 8 µg/mL
CC[C@H]1/C=C(\C)[C@@H](O)C/C=C/C=C(\CNc2nc3c(s2)CCCC3)C(=O)O[C@H]([C@@H](C)O)C/C=C(C)/C=C(\C)[C@@H]1O[C@@H]1OC(C)(C)[C@@H](OC(=O)C(C)C)[C@H](O)[C@@H]1O [compound 11],8 to 16,16,,
CC[C@H]1/C=C(\C)[C@@H](O)C/C=C/C=C(\CNc2nc3c(s2)CN(C)CC3)C(=O)O[C@H]([C@@H](C)O)C/C=C(C)/C=C(\C)[C@@H]1O[C@@H]1OC(C)(C)[C@@H](OC(=O)C(C)C)[C@H](O)[C@@H]1O [compound 12],,32,,
CC[C@H]1/C=C(\C)[C@@H](O)C/C=C/C=C(\CNCc2nc3ccccc3s2)C(=O)O[C@H]([C@@H](C)O)C/C=C(C)/C=C(\C)[C@@H]1O[C@@H]1OC(C)(C)[C@@H](OC(=O)C(C)C)[C@H](O)[C@@H]1O [compound 14],> 32,16,,
CC[C@H]1/C=C(\C)[C@@H](O)C/C=C/C=C(\CNCc2cc(-c3ccccc3)no2)C(=O)O[C@H]([C@@H](C)O)C/C=C(C)/C=C(\C)[C@@H]1O[C@@H]1OC(C)(C)[C@@H](OC(=O)C(C)C)[C@H](O)[C@@H]1O [compound 15],,16,,
CC[C@H]1/C=C(\C)[C@@H](O)C/C=C/C=C(\CNCc2nnc(-c3cc(Cl)cc(Cl)c3O)o2)C(=O)O[C@H]([C@@H](C)O)C/C=C(C)/C=C(\C)[C@@H]1O[C@@H]1OC(C)(C)[C@@H](OC(=O)C(C)C)[C@H](O)[C@@H]1O [compound 17],2,32,,
CC[C@H]1/C=C(\C)[C@@H](O)C/C=C/C=C(\CNCc2nnc(C)o2)C(=O)O[C@H]([C@@H](C)O)C/C=C(C)/C=C(\C)[C@@H]1O[C@@H]1OC(C)(C)[C@@H](OC(=O)C(C)C)[C@H](O)[C@@H]1O [compound 19],32,16,,
CC[C@H]1/C=C(\C)[C@@H](O)C/C=C/C=C(\CNCc2nnc(-c3cccc(O)c3O)o2)C(=O)O[C@H]([C@@H](C)O)C/C=C(C)/C=C(\C)[C@@H]1O[C@@H]1OC(C)(C)[C@@H](OC(=O)C(C)C)[C@H](O)[C@@H]1O [compound 22],8,4,,MIC [1]: 2 µg/mL
CC[C@H]1/C=C(\C)[C@@H](O)C/C=C/C=C(\CNCc2nnc(-c3ccc(C(F)(F)F)cc3)o2)C(=O)O[C@H]([C@@H](C)O)C/C=C(C)/C=C(\C)[C@@H]1O[C@@H]1OC(C)(C)[C@@H](OC(=O)C(C)C)[C@H](O)[C@@H]1O [compound 23],4,,8,"MIC ([1]; 14 days, 37 °C, turbidity by eye): 2 µg/mL"
CC[C@H]1/C=C(\C)[C@@H](O)C/C=C/C=C(\CNc2cccc(CNC(=O)CCC(=O)O)c2)C(=O)O[C@H]([C@@H](C)O)C/C=C(C)/C=C(\C)[C@@H]1O[C@@H]1OC(C)(C)[C@@H](OC(=O)C(C)C)[C@H](O)[C@@H]1O [compound 28],32,,> 64,

Compound,MIC (C. difficile 630; [3]) [µg/mL],IC90 [2] [µg/mL],"IC90 [2, 4] [µg/mL]",also measured
CC[C@H]1/C=C(\C)[C@@H](O)C/C=C/C=C(\CNc2cccc(CNC(=O)Cc3nnn[nH]3)c2)C(=O)O[C@H]([C@@H](C)O)C/C=C(C)/C=C(\C)[C@@H]1O[C@@H]1OC(C)(C)[C@@H](OC(=O)C(C)C)[C@H](O)[C@@H]1O [compound 29],> 32,,64,
CC[C@H]1/C=C(\C)[C@@H](O)C/C=C/C=C(\CNc2cccc(CNC(=O)c3ccc(O)c(O)c3Cl)c2)C(=O)O[C@H]([C@@H](C)O)C/C=C(C)/C=C(\C)[C@@H]1O[C@@H]1OC(C)(C)[C@@H](OC(=O)C(C)C)[C@H](O)[C@@H]1O [compound 31],32,,> 64,
CC[C@H]1/C=C(\C)[C@@H](O)C/C=C/C=C(\CNc2nc(-c3cccc(O)c3)cs2)C(=O)O[C@H]([C@@H](C)O)C/C=C(C)/C=C(\C)[C@@H]1O[C@@H]1OC(C)(C)[C@@H](OC(=O)C(C)C)[C@H](O)[C@@H]1O [compound 32],8,,4 to 8,
CC[C@H]1/C=C(\C)[C@@H](O)C/C=C/C=C(\CNc2nc(-c3cccc(OS(=O)(=O)F)c3)cs2)C(=O)O[C@H]([C@@H](C)O)C/C=C(C)/C=C(\C)[C@@H]1O[C@@H]1OC(C)(C)[C@@H](OC(=O)C(C)C)[C@H](O)[C@@H]1O [compound 33],,,8 to 16,"MIC (C. difficile 630; Clostridioides difficile, 630, read-out: MIC C. difficile): > 32 µg/mL"
CC[C@H]1/C=C(\C)[C@@H](O)C/C=C/C=C(\CNc2nc(-c3cccc(OS(=O)(=O)NC)c3)cs2)C(=O)O[C@H]([C@@H](C)O)C/C=C(C)/C=C(\C)[C@@H]1O[C@@H]1OC(C)(C)[C@@H](OC(=O)C(C)C)[C@H](O)[C@@H]1O [compound 34],1,,8,
CC[C@H]1/C=C(\C)[C@@H](O)C/C=C/C=C(\CNc2nc(-c3cccc(OS(=O)(=O)N(C)C)c3)cs2)C(=O)O[C@H]([C@@H](C)O)C/C=C(C)/C=C(\C)[C@@H]1O[C@@H]1OC(C)(C)[C@@H](OC(=O)C(C)C)[C@H](O)[C@@H]1O [compound 35],> 32,,8,
CC[C@H]1/C=C(\C)[C@@H](O)C/C=C/C=C(\CNc2nc(-c3cccc(OS(=O)(=O)N4CCCC4)c3)cs2)C(=O)O[C@H]([C@@H](C)O)C/C=C(C)/C=C(\C)[C@@H]1O[C@@H]1OC(C)(C)[C@@H](OC(=O)C(C)C)[C@H](O)[C@@H]1O [compound 36],> 32,,8,
CC[C@H]1/C=C(\C)[C@@H](O)C/C=C/C=C(\CNc2nc(-c3cccc(OS(=O)(=O)NCCOC)c3)cs2)C(=O)O[C@H]([C@@H](C)O)C/C=C(C)/C=C(\C)[C@@H]1O[C@@H]1OC(C)(C)[C@@H](OC(=O)C(C)C)[C@H](O)[C@@H]1O [compound 37],2,,8,
CC[C@H]1/C=C(\C)[C@@H](O)C/C=C/C=C(\CNc2nc(-c3cccc(OS(=O)(=O)Oc4ccccc4)c3)cs2)C(=O)O[C@H]([C@@H](C)O)C/C=C(C)/C=C(\C)[C@@H]1O[C@@H]1OC(C)(C)[C@@H](OC(=O)C(C)C)[C@H](O)[C@@H]1O [compound 38],> 32,,> 64,
CC[C@H]1/C=C(\C)[C@@H](O)C/C=C/C=C(\CN2CCN(C)CC2)C(=O)O[C@H]([C@@H](C)O)C/C=C(C)/C=C(\C)[C@@H]1O[C@@H]1OC(C)(C)[C@@H](O)[C@H](OC(=O)c2ccoc2)[C@@H]1O [compound 41],,,> 64,
CC[C@H]1/C=C(\C)[C@@H](O)C/C=C/C=C(\CN2CCCCC2)C(=O)O[C@H]([C@@H](C)O)C/C=C(C)/C=C(\C)[C@@H]1O[C@@H]1OC(C)(C)[C@@H](O)[C@H](OC(=O)c2ccoc2)[C@@H]1O [compound 42],,,> 64,
CC[C@H]1/C=C(\C)[C@@H](O)C/C=C/C=C(\CN2CCN(CCCN(C)C)CC2)C(=O)O[C@H]([C@@H](C)O)C/C=C(C)/C=C(\C)[C@@H]1O[C@@H]1OC(C)(C)[C@@H](O)[C@H](OC(=O)c2ccoc2)[C@@H]1O [compound 43],,,32 to 64,
CC[C@H]1/C=C(\C)[C@@H](O)C/C=C/C=C(\CN2CCN(C)CC2)C(=O)O[C@H]([C@@H](C)O)C/C=C(C)/C=C(\C)[C@@H]1O[C@@H]1OC(C)(C)[C@@H](O)[C@H](OC(=O)c2ccn(C)n2)[C@@H]1O [compound 44],,,> 64,
CC[C@H]1/C=C(\C)[C@@H](O)C/C=C/C=C(\CN2CCN(C)CC2)C(=O)O[C@H]([C@@H](C)O)C/C=C(C)/C=C(\C)[C@@H]1O[C@@H]1OC(C)(C)[C@@H](O)[C@H](OC(=O)c2ccnn2C)[C@@H]1O [compound 45],,,> 64,
CC[C@H]1/C=C(\C)[C@@H](O)C/C=C/C=C(\CN2CCN(C)CC2)C(=O)O[C@H]([C@@H](C)O)C/C=C(C)/C=C(\C)[C@@H]1O[C@@H]1OC(C)(C)[C@@H](O)[C@H](OC(=O)c2cnn(C)c2)[C@@H]1O [compound 46],,,> 64,

# From publication PMC11811690 (Angewandte Chemie (International Ed. in English), 2024)
